The values below come from US20180000085A1, “USE OF PICOLINAMIDE COMPOUNDS WITH FUNGICIDAL ACTIVITY” (DOW AGROSCIENCES LLC, priority 2014, published 2018).

The structures appear in SMILES notation.

One assay has as its system Zymoseptoria tritici. Description: Leaf blotch of wheat (SEPTTR) disease control on wheat seedlings. It counts as in vivo. Further details: key to SEPTTR 1DP, HV activity at 100 ppm (% control rating) / SEPTTR 3DC, HV activity at 100 ppm (% control rating) / SEPTTR disease control, 1DP / SEPTTR disease control, 3DC / SEPTTR 1DP disease control rating, HV activity / SEPTTR 3DC disease control rating, HV activity / SEPTTR 3DC, LV activity at 125.1 g/H (% Control rating) / SEPTTR 1DP, LV activity at 125.1 g/H (% Control rating) / SEPTTR 1DP disease control rating, LV activity at 125.1 g/H / SEPTTR 3DC disease control rating, LV activity at 125.1 g/H / SEPTTR 3DC disease control rating, HV activity at 100 ppm / SEPTTR 1DP disease control rating, HV activity at 100 ppm / HV activity at 100 ppm SEPTTR 3DC (disease control rating) / HV activity at 100 ppm SEPTTR 1DP (disease control rating) / LV activity at 125.1 g/H SEPTTR 1DP (disease control rating) / LV activity at 125.1 g/H SEPTTR 3DC (disease control rating): A: > 80; B: ≤ 80; C: Not Tested; D: No Activity Observed in the Reported Assay. Conditions: for SEPTTR 1DP disease control rating, HV activity / SEPTTR 3DC disease control rating, HV activity: HV application at 100 ppm, wheat leaf blotch.

The subject of the next assay is Puccinia triticina. Description: Wheat brown rust (PUCCRT) disease control on wheat seedlings. In kind it is in vivo. Conditions: for PUCCRT 1DP disease control rating, HV activity / PUCCRT 3DC disease control rating, HV activity: HV application at 100 ppm, wheat brown rust. The arrangement: key to PUCCRT 3DC, HV activity at 100 ppm (% control rating) / PUCCRT disease control, 3DC / PUCCRT 1DP disease control rating, HV activity / PUCCRT 3DC disease control rating, HV activity / PUCCRT 3DC, LV activity at 125.1 g/H (% Control rating) / PUCCRT 1DP, LV activity at 125.1 g/H (% Control rating) / PUCCRT 3DC disease control rating, LV activity at 125.1 g/H / PUCCRT 1DP disease control rating, LV activity at 125.1 g/H / PUCCRT 3DC disease control rating, HV activity at 100 ppm / PUCCRT 1DP disease control rating, HV activity at 100 ppm / HV activity at 100 ppm PUCCRT 3DC (disease control rating) / LV activity at 125.1 g/H PUCCRT 1DP (disease control rating) / LV activity at 125.1 g/H PUCCRT 3DC (disease control rating): A: > 80; B: ≤ 80; C: Not Tested; D: No Activity Observed in the Reported Assay.

Setting [1] is: low volume application, 125.1 g/H, 1 Day Protectant.
[2] abbreviates: low volume application, 125.1 g/H, 3 Day Curative.
[3] abbreviates: high volume application, 100 ppm, 1 day protectant.
Where [4] appears, read: high volume application, 100 ppm, 3 day curative.
[5] abbreviates: low volume application, 125.1 g/H, 1 day protectant.
Where [6] appears, read: low volume application, 125.1 g/H, 3 day curative.
[7] abbreviates: HV activity at 100 ppm, 1 Day Protectant, wheat.
Where [8] appears, read: HV activity at 100 ppm, 3 Day Curative, wheat.
The mark [9] stands for this setting: high volume application, 100 ppm, 1DP.
[10] abbreviates: high volume application, 100 ppm, 3DC.

Consider `COc1ccnc(C(=O)NC(C)C(=O)OC(C)COC(=O)C(C)C)c1OCOC(C)=O` (stereo not drawn) [Cmpd 530], for which, in the assay with Zymoseptoria tritici (setting [1]), the “SEPTTR 1DP, LV activity at 125.1 g/H (% Control rating)” value is given as “B (≤ 80)”. For the same molecule, the “SEPTTR 3DC, LV activity at 125.1 g/H (% Control rating)” value in the assay with Zymoseptoria tritici (setting [2]) is recorded as “B (≤ 80)”. In the assay with Puccinia triticina (setting [1]), the “PUCCRT 1DP, LV activity at 125.1 g/H (% Control rating)” value is on record as “D”. Moreover, the “PUCCRT 3DC, LV activity at 125.1 g/H (% Control rating)” value in the assay on Puccinia triticina (setting [2]) was “D”.

As to `CCC(CCC(C)C)C(OCC1CC1)C(C)OC(=O)C(C)NC(=O)c1nccc(OC)c1O` (stereo not drawn) [Cmpd 318], the “SEPTTR 1DP disease control rating, HV activity” value in the assay on Zymoseptoria tritici (1 Day Protectant) is on record as “D”. Also, the “SEPTTR 3DC disease control rating, HV activity” value in the assay with Zymoseptoria tritici (3 Day Curative) is “B (≤ 80)”. Besides, the “PUCCRT 1DP disease control rating, HV activity” value in the assay with Puccinia triticina (1 Day Protectant) is “D”. The “PUCCRT 3DC disease control rating, HV activity” value with Puccinia triticina (3 Day Curative) is “B (≤ 80)”.

Consider `COc1ccnc(C(=O)N[C@@H](C)C(=O)O[C@@H](C)[C@H](Oc2ccc(C)cc2)C2CC2)c1O` [Cmpd 1010], for which the “SEPTTR 1DP disease control rating, HV activity at 100 ppm” value with Zymoseptoria tritici (setting [3]) is “B (≤ 80)”. For the same molecule, in the assay on Zymoseptoria tritici (setting [4]), the “SEPTTR 3DC disease control rating, HV activity at 100 ppm” value is recorded as “B (≤ 80)”. Also, in the assay on Puccinia triticina (setting [3]), the “PUCCRT 1DP disease control rating, HV activity at 100 ppm” value is “A (> 80)”. Besides, in the assay with Puccinia triticina (setting [4]), the “PUCCRT 3DC disease control rating, HV activity at 100 ppm” value is listed as “A (> 80)”.

In the case of `CC[C@H](Cc1ccc(F)cc1)[C@@H](Oc1ccccc1)[C@H](C)OC(=O)[C@H](C)NC(=O)c1nccc(OC)c1OC(C)=O` [Cmpd 469], the “SEPTTR 1DP, LV activity at 125.1 g/H (% Control rating)” value with Zymoseptoria tritici (setting [1]) is listed as “A (> 80)”. Further, in the assay with Zymoseptoria tritici (setting [2]), the “SEPTTR 3DC, LV activity at 125.1 g/H (% Control rating)” value is reported as “A (> 80)”. Further, the “PUCCRT 1DP, LV activity at 125.1 g/H (% Control rating)” value in the assay on Puccinia triticina (setting [1]) is given as “A (> 80)”. Further, in the assay on Puccinia triticina (setting [2]), the “PUCCRT 3DC, LV activity at 125.1 g/H (% Control rating)” value is “A (> 80)”.

With `COc1ccnc(C(=O)N[C@@H](C)C(=O)O[C@@H](C)[C@@H](OC(=O)c2ccccc2)C(C)C)c1OC(C)=O` [Cmpd 856], the “SEPTTR 1DP disease control rating, LV activity at 125.1 g/H” value in the assay with Zymoseptoria tritici (setting [5]) is “D”. In addition, the “SEPTTR 3DC disease control rating, LV activity at 125.1 g/H” value in the assay on Zymoseptoria tritici (setting [6]) is “D”. For the same molecule, the “PUCCRT 1DP disease control rating, LV activity at 125.1 g/H” value in the assay on Puccinia triticina (setting [5]) was “B (≤ 80)”. Also, the “PUCCRT 3DC disease control rating, LV activity at 125.1 g/H” value in the assay with Puccinia triticina (setting [6]) is given as “B (≤ 80)”.

With `CC[C@H](C)[C@H](NC(=O)c1nccc(OC)c1OCOC(C)=O)C(=O)O[C@@H](C)[C@H](Oc1ccc(C(F)(F)F)cc1)C(C)C` [Cmpd 620], the “SEPTTR 1DP, LV activity at 125.1 g/H (% Control rating)” value in the assay with Zymoseptoria tritici (setting [1]) was “D”. The “SEPTTR 3DC, LV activity at 125.1 g/H (% Control rating)” value with Zymoseptoria tritici (setting [2]) was “B (≤ 80)”. The “PUCCRT 1DP, LV activity at 125.1 g/H (% Control rating)” value in the assay on Puccinia triticina (setting [1]) was “B (≤ 80)”. Moreover, the “PUCCRT 3DC, LV activity at 125.1 g/H (% Control rating)” value in the assay with Puccinia triticina (setting [2]) is recorded as “B (≤ 80)”.

Turning to `CCCOC(CC)C(Oc1ccccc1)C(C)OC(=O)C(NC(=O)c1nccc(OC)c1O)C(C)C` (stereo not drawn) [Cmpd 290], the “SEPTTR disease control, 1DP” value in the assay with Zymoseptoria tritici (setting [7]) is on record as “B (≤ 80)”. Moreover, the “SEPTTR disease control, 3DC” value in the assay with Zymoseptoria tritici (setting [8]) is given as “B (≤ 80)”. The “SEPTTR 1DP disease control rating, HV activity” value in the assay with Zymoseptoria tritici (1 Day Protectant) is reported as “B (≤ 80)”. Further, the “SEPTTR 3DC disease control rating, HV activity” value with Zymoseptoria tritici (3 Day Curative) is given as “B (≤ 80)”. Moreover, the “SEPTTR 1DP, HV activity at 100 ppm (% control rating)” value in the assay with Zymoseptoria tritici (setting [9]) is listed as “B (≤ 80)”. Also, the “SEPTTR 3DC, HV activity at 100 ppm (% control rating)” value in the assay on Zymoseptoria tritici (setting [10]) is listed as “B (≤ 80)”. Moreover, in the assay on Puccinia triticina (setting [7]), the “PUCCRT disease control, 1DP” value is “A (> 80)”. Besides, the “PUCCRT disease control, 3DC” value in the assay on Puccinia triticina (setting [8]) is “B (≤ 80)”. Moreover, in the assay on Puccinia triticina (1 Day Protectant), the “PUCCRT 1DP disease control rating, HV activity” value was “A (> 80)”. Also, in the assay with Puccinia triticina (3 Day Curative), the “PUCCRT 3DC disease control rating, HV activity” value was “B (≤ 80)”. For the same molecule, in the assay on Puccinia triticina (setting [9]), the “PUCCRT 1DP, HV activity at 100 ppm (% control rating)” value was “A (> 80)”. Also, in the assay with Puccinia triticina (setting [10]), the “PUCCRT 3DC, HV activity at 100 ppm (% control rating)” value is “B (≤ 80)”.

Consider `COc1ccnc(C(=O)NC(C)C(=O)OC(C)C(Oc2ccc3ccccc3c2)C(C)C)c1O` (stereo not drawn) [Cmpd 398], for which the “SEPTTR 1DP disease control rating, HV activity” value in the assay on Zymoseptoria tritici (1 Day Protectant) is reported as “D”. Further, the “SEPTTR 3DC disease control rating, HV activity” value in the assay with Zymoseptoria tritici (3 Day Curative) is “B (≤ 80)”. For the same molecule, the “PUCCRT 1DP disease control rating, HV activity” value with Puccinia triticina (1 Day Protectant) is “A (> 80)”. Also, the “PUCCRT 3DC disease control rating, HV activity” value in the assay with Puccinia triticina (3 Day Curative) was “B (≤ 80)”.

As for `COc1ccnc(C(=O)NC(C)C(=O)OC(C)C(Oc2ccc(-c3ccccc3)cc2)C(C)C)c1O` (stereo not drawn) [Cmpd 388], in the assay on Zymoseptoria tritici (1 Day Protectant), the “SEPTTR 1DP disease control rating, HV activity” value is on record as “A (> 80)”. The “SEPTTR 3DC disease control rating, HV activity” value in the assay with Zymoseptoria tritici (3 Day Curative) was “B (≤ 80)”. Further, the “PUCCRT 1DP disease control rating, HV activity” value in the assay with Puccinia triticina (1 Day Protectant) is “A (> 80)”. Moreover, the “PUCCRT 3DC disease control rating, HV activity” value in the assay on Puccinia triticina (3 Day Curative) is “B (≤ 80)”.

Turning to `COc1ccnc(C(=O)N[C@@H](C)C(=O)O[C@@H](C)[C@H](Oc2ccc(F)cc2)C2CCCC2)c1O` [Cmpd 840], the “SEPTTR 1DP disease control rating, HV activity at 100 ppm” value in the assay with Zymoseptoria tritici (setting [3]) is given as “B (≤ 80)”. The “SEPTTR 3DC disease control rating, HV activity at 100 ppm” value in the assay on Zymoseptoria tritici (setting [4]) was “A (> 80)”. Further, the “PUCCRT 1DP disease control rating, HV activity at 100 ppm” value in the assay on Puccinia triticina (setting [3]) is recorded as “A (> 80)”. Besides, in the assay on Puccinia triticina (setting [4]), the “PUCCRT 3DC disease control rating, HV activity at 100 ppm” value was “A (> 80)”.
